Results taken from US20130109721A1, “FAAH Inhibitors” (Ironwood Pharmaceuticals, Inc., priority 2009, published 2013).

target: T1, FAAH (Rattus norvegicus, UniProt P97612); experiment: FAAH inhibition, rat brain membrane homogenate assay; format: biochemical; settings: average; FAAH extracted from rat brain homogenate; read-out: Rat Brian Extract IC50
T1 construct: For assay of FAAH activity in rat brain membrane (RBM) homogenates; tissue Charles River; host or cells: rat (CD strain) brain membrane homogenate
T1 sequence (P97612 1-579): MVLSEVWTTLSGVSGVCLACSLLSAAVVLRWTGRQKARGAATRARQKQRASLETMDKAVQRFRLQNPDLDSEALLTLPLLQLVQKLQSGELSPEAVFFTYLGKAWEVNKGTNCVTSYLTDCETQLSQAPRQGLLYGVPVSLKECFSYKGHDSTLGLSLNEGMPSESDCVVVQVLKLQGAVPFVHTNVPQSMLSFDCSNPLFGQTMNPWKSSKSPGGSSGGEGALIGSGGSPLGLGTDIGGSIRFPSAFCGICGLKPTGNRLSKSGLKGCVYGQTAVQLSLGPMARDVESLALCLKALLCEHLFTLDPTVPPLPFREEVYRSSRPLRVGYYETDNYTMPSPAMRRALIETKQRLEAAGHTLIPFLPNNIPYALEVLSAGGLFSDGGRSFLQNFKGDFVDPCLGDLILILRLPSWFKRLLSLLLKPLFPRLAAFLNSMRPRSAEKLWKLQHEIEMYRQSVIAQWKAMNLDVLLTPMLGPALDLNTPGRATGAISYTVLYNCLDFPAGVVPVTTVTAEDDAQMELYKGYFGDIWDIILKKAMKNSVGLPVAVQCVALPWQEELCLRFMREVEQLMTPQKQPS
Procedure: Adult rats (Charles River CD strain, female, 200 g) were anaesthetized with isofluorane and rapidly decapitated. Each brain was quickly removed and chilled in tubes (3 brains per tube) on ice. About 25 mL of “homogenization buffer” (20 mM HEPES buffer, pH 7.0, with 1 mM MgCl2) was added to 15 to 20 g of brain. The brains were homogenized on ice for 1 minute using an Omni GLH homogenizer (Omni International, Marietta, Ga.). The homogenates were then transferred to three centrifuge tubes and centrifuged at 36,500 g for 20 minutes at 4° C. The supernatant was discarded and each pellet was re-suspended in 25 mL homogenization buffer. The re-suspended material was again centrifuged (36,500 g, 20 minutes at 4° C.). Pellets were combined by resuspension in 10 mL of homogenization buffer and incubated in a 37° C. water bath for 15 minutes. The tubes were then placed on ice for 5 minutes followed by centrifugation at 36,500 g for 20 minutes at 4° C. The supernatant was discarded and the membrane pellets were then re-suspended in 40 mL of “resuspension buffer” (50 mM Tris-HCl buffer, pH 7.4, containing 1 mM EDTA and 3 mM MgCl2). A Bradford Protein assay was performed to determine protein concentration. The protein was aliquotted into screw cap Cryo tubes each containing ˜400 μL, flash frozen in liquid nitrogen and stored at −80° C. until used for the assay. A similar protocol was used to obtain brain membrane homogenates from mice.
FAAH activity was assayed in the respective homogenates described herein (Rat brain, Mouse brain or Human brain) for certain exemplary substrate compounds using a modification of the method of Omeir et al. (1995 Life Sci 56:1999) and Fowler et al. (1997 J. Pharmacol Exp Ther 283:729). For assay of FAAH activity in rat brain membrane (RBM) homogenates, RBM homogenates (7 μg protein in 20 μL final volume of 10 mM Tris pH 6.5) were mixed with 180 μL of a mixture of the following: 2.0 μM unlabelled anandamide, 0.03 μCi radio labeled anandamide [ethanolamine 1-^3H] (40-60 Cis/mmol, product number ART-626, American Radiolabeled Chemicals, St. Louis, Mo.), 1 mg/mL Bovine Serum Albumin (fatty acid-free BSA, electrophoresis grade, Sigma, St. Louis, Mo.), 10 mM Tris-HCl (pH 6.5), and 1 mM EDTA in the presence and absence of test compounds (vehicle was DMSO at a final concentration of 1%) and incubated for 10 minutes at 37° C. Samples were placed on ice to terminate the reactions.
^3H-ethanolamine product and un-reacted ^3H-anandamide substrate were then separated either: (1) by using chloroform/methanol extraction or (2) by passing the reaction mixture through a glass fiber filter containing activated charcoal. Samples were extracted with chloroform/methanol by adding 0.4 mL of chloroform/methanol (1:1 v/v), vigorously mixing the samples, and separating the aqueous and organic phases by centrifugation. Radioactivity (corresponding to FAAH-catalyzed breakdown of ^3H-anandamide) found in aliquots (0.2 mL) of the aqueous phase was determined by liquid scintillation counting with quench correction. IC50 values were determined as described by Jonsson et al. (2001 Br. J. Pharmacol. 133:1263). Alternatively, reactions were purified using a modification of the solid-phase extraction method described by Wilson et al (2003 Anal. Biochem. 318:270). This method was modified as follows: after reactions were incubated at 37° C. for 10 minutes and chilled on ice, the reaction mixtures were acidified by adding 10 μL of sodium phosphate solution [0.5M (pH 2.0)]. Next, 90 μL aliquots of the acidified reaction mixtures were applied to activated charcoal (that had been previously washed with methanol as described by Wilson et al. (supra)) containing 80 μL of water on top of a glass fiber filter, centrifuged, and the radioactivity in the eluate was counted as described previously by Wilson et al. (supra). […]

Going from `Cc1c(C(=O)C(=O)Nc2cccc(Cl)c2)c2c(n1Cc1ccc(Cl)cc1)CCCC2` [Compound I-16, 2-(1-(4-chlorobenzyl)-2-methyl-4,5,6,7-tetrahydro-1H-indol-3-yl)-N-(3-chlorophenyl)-2-oxoacetamide] to `COc1cc(NC(=O)C(=O)c2c3c(n(Cc4ccc(Cl)cc4)c2C)CCCC3)ccn1` [Compound I-18, 2-(1-(4-chlorobenzyl)-2-methyl-4,5,6,7-tetrahydro-1H-indol-3-yl)-N-(2-methoxypyridin-4-yl)-2-oxoacetamide], the IC50 rises from 4 nM to 1440 nM (360-fold).

Going from `COc1cc(NC(=O)C(=O)c2c(-c3ccccc3)c(C)n(Cc3ccc(Cl)cc3)c2C)ccn1` [Compound I-19, 2-(1-(4-chlorobenzyl)-2,5-dimethyl-4-phenyl-1H-pyrrol-3-yl)-N-(2-methoxypyridin-4-yl)-2-oxoacetamide] to `Cc1c(C(=O)C(=O)Nc2cccc(Cl)c2)c(-c2ccccc2)c(C)n1Cc1ccc(Cl)cc1` [Compound I-20, 2-(1-(4-chlorobenzyl)-2,5-dimethyl-4-phenyl-1H-pyrrol-3-yl)-N-(3-chlorophenyl)-2-oxoacetamide], the IC50 rises from 5 nM to 1040 nM (210-fold).

Going from `COc1cc(NC(=O)C(=O)c2cc(C)n(Cc3ccc(Cl)cc3Cl)c2C)ccn1` [Compound I-21, 2-(1-(2,4-dichlorobenzyl)-2,5-dimethyl-1H-pyrrol-3-yl)-N-(2-methoxypyridin-4-yl)-2-oxoacetamide] to `COc1ccc(Cn2c(C)cc(C(=O)C(=O)Nc3ccnc(OC)c3)c2C)cc1` [Compound I-22, 2-(1-(4-methoxybenzyl)-2,5-dimethyl-1H-pyrrol-3-yl)-N-(2-methoxypyridin-4-yl)-2-oxoacetamide], the IC50 rises from 1 nM to 1770 nM (1800-fold). The first is the more potent here.

Going from `COc1cc(NC(=O)C(=O)c2cc(C)n(Cc3ccc(Cl)cc3)c2-c2ccccc2)ccn1` [Compound I-23, 2-(1-(4-chlorobenzyl)-5-methyl-2-phenyl-1H-pyrrol-3-yl)-N-(2-methoxypyridin-4-yl)-2-oxoacetamide] to `Cc1cc(C(=O)C(=O)Nc2cccc(Cl)c2)c(-c2ccccc2)n1Cc1ccc(Cl)cc1` [Compound I-24, 2-(1-(4-chlorobenzyl)-5-methyl-2-phenyl-1H-pyrrol-3-yl)-N-(3-chlorophenyl)-2-oxoacetamide], the IC50 rises from 185 nM to over 5000 nM. The first is the more potent here.

Going from `Cc1c(C(=O)C(=O)Nc2cccc(Cl)c2)cc(-c2ccccc2)n1Cc1ccc(Cl)cc1` [Compound I-25, 2-(1-(4-chlorobenzyl)-2-methyl-5-phenyl-1H-pyrrol-3-yl)-N-(3-chlorophenyl)-2-oxoacetamide] to `Cc1c(C(=O)C(=O)Nc2ccncc2)cc(-c2ccccc2)n1Cc1ccc(Cl)cc1` [Compound I-26, 2-(1-(4-chlorobenzyl)-2-methyl-5-phenyl-1H-pyrrol-3-yl)-2-oxo-N-(pyridin-4-yl)acetamide], the IC50 rises from 28 nM to over 5000 nM.
